Data: PubChem BioAssay AID1963832 (Molecular Pharmacology Branch, DTP, NCI, 2024)

Tested on: 885724-159-R-J1-PDC complex spheroid viability
Assay: Anticancer human tumor 885724-159-R-J1-PDC patient-derived pancreatic adenocarcinoma cell line growth inhibition [POLQ]
Conditions: for IC50: curve of first compound; for viability, T/C: stronger effect = lower value
Description: Multicellular complex tumor spheroid response to Polymerase (POL) inhibitors (novobiocin, ART-558, RP6685) in combination with a variety of drugs and investigational agents in selected tumor cell lines
The POL inhibitors (novobiocin, ART-558, and RP6685) were evaluated both individually and in combination with standard of care and investigational anticancer small molecules within a complex spheroid model of solid tumors. . Complex spheroids include a stromal component modeled by human endothelial cells (HUVEC) and fibroblasts modeled by human mesenchymal stem cells (MSCs). The concentration ranges selected for each drug and investigational agent were based upon clinically achievable concentrations if the clinical Cmax of the agent was known.
Compounds. The drugs and investigational agents: novobiocin (NSC847541), ART-558 (NSC835418), RP-6685 (NSC848927), peposertib (NSC802822), ceralasertib (NSC780249), elimusertib (NSC800525), camonsertib (NSC841442), AZD-1390 (NSC803789), olaparib (NSC753686), talazoparib (NSC767125), rucaparib (NSC756644), sotorasib (NSC818433), MRTX-1133 (NSC836407), SN-38 (NSC673596), topotecan (NSC609699), epotoside (NSC141540), doxorubicin (NSC123127), gemcitabine (NSC613327), 5-fluorouracil (NSC19893), paclitaxel (NSC125973), vemurafenib (NSC761431), MSA-2 (NSC828583), SN-011 (NSC837082), adavosertib (NSC754352), prexasertib (NSC758257), carboplatin (NSC241240) and oxaliplatin (NSC266046), were obtained from the National Cancer Institute (NCI) Developmental Therapeutics Program Chemical Repository (21). The FDA-approved anticancer drug set is available from the Developmental Therapeutics Program at https://dtp.cancer.gov/organization/dscb/obtaining/. […] The stock solutions were prepared in dimethyl sulfoxide (DMSO, Sigma-Aldrich, St. Louis, MO, cat. D2650), except for the platinum compounds which were prepared in saline (Quality Biological, Gaithersburg, MD, cat. 114-055-101), at 800-fold the tested concentration and stored at -70 degrees C prior to their use. All drugs and investigational agents were tested over a range starting from a high concentration at or near the clinical Cmax and decreasing in half-log increments. If the clinical Cmax for an agent had not been determined, the highest concentration tested was 10 microM, except for SN-38, which was tested at a high concentration of 1 microM.
Cell Culture. All cells were maintained in an incubator at 37 degrees C and 5% CO2 with 95% humidity. The PDC lines were cultured according to standard operating procedures established by the NCI PDMR (https://pdmr.cancer.gov). Table 3 of the manuscript, lists the cell lines along with the number of the three cell types plated to form the mct-spheroids and media for tumor cell growth. After thawing, all PDC lines, except 997537-175-T-J1-PDC and 415267-285-R-J2-PDC, were cultured in Matrigel-coated flasks prepared with a working solution of 1X Ham's F-12 nutrient mix, without supplementation (Thermo Fisher Scientific, cat. 11765054), 100 U/mL penicillin-streptomycin (Thermo Fisher Scientific, cat. 15140122), and 2.5% Matrigel (Corning Inc., Corning, NY, cat. 354248) for the first three passages. The two PDC lines 997537-175-T-J1-PDC and 415267-285-R-J2-PDC were cultured on uncoated flasks. The 857933-349-R-J2-PDC line was cultured in 6C/Colon 1B media containing advanced DMEM/F-12 (Thermo Fisher Scientific, cat. 12634028), 10 mM HEPES (Thermo Fisher Scientific, cat. 15630080), 1X GlutaMAX supplement (Thermo Fisher Scientific, cat. 35050061), 0.1 mg/mL primocin (InvivoGen, San Diego, CA, cat. ant-pm-2), 10% defined fetal bovine serum, heat inactivated (HyClone Laboratories Inc., Logan, UT, cat. SH30070.03HI), 50% L-WRN conditioned media (ATCC, cat. CRL-3276), 1.25 mM N-Acetyl-L-cysteine (Sigma-Aldrich, cat. A9165), 10 mM nicotinamide (Sigma-Aldrich, cat. N0636), 1X B-27 supplement (Thermo Fisher Scientific, cat. 17504044), 1X N-2 supplement (Thermo Fisher Scientific, cat. […]

[1] = second compound 0.0316 µM, first compound 0.0316 µM
[2] = second compound 0.0316 µM, first compound 0.1 µM
[3] = second compound 0.0316 µM, first compound 0.316 µM
[4] = second compound 0.0316 µM, first compound 1 µM
[5] = second compound 0.1 µM, first compound 0.0316 µM
[6] = second compound 0.1 µM, first compound 0.1 µM
[7] = second compound 0.1 µM, first compound 0.316 µM
[8] = second compound 0.1 µM, first compound 1 µM
[9] = second compound 0.316 µM, first compound 0.0316 µM
[10] = second compound 0.316 µM, first compound 0.1 µM
[11] = second compound 0.316 µM, first compound 0.316 µM
[12] = second compound 0.316 µM, first compound 1 µM
[13] = second compound 1 µM, first compound 0.0316 µM
[14] = second compound 1 µM, first compound 0.1 µM
[15] = second compound 1 µM, first compound 0.316 µM
[16] = second compound 1 µM, first compound 1 µM
[17] = second compound 3.16 µM, first compound 0.0316 µM
[18] = second compound 3.16 µM, first compound 0.1 µM
[19] = second compound 3.16 µM, first compound 0.316 µM
[20] = second compound 3.16 µM, first compound 1 µM
[21] = second compound 10 µM, first compound 0.0316 µM
[22] = second compound 10 µM, first compound 0.1 µM
[23] = second compound 10 µM, first compound 0.316 µM
[24] = second compound 10 µM, first compound 1 µM
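Also: spheroids exposed to compounds for 7 days.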

Structure (SMILES): C=CCn1c(=O)c2cnc(Nc3ccc(N4CCN(C)CC4)cc3)nc2n1-c1cccc(C(C)(C)O)n1 + COC1C(OC(N)=O)C(O)C(Oc2ccc3c(O)c(NC(=O)c4ccc(O)c(CC=C(C)C)c4)c(=O)oc3c2C)OC1(C)C
- IC50 (second compound 0.0316 µM): 296 nM
- IC50 (second compound 0.1 µM): 532 nM
- IC50 (second compound 0.316 µM): 689 nM
- IC50 (second compound 1 µM): 713 nM
- IC50 (second compound 3.16 µM): 697 nM
- IC50 (second compound 10 µM): 631 nM
- viability, T/C (second compound 0.0316 µM, first compound 0.00316 µM): 87.8%
- viability, T/C (second compound 0.0316 µM, first compound 0.01 µM): 109%
- viability, T/C [1]: 90.9%
- viability, T/C [2]: 85.4%
- viability, T/C [3]: 47.5%
- viability, T/C [4]: 42.2%
- viability, T/C (second compound 0.1 µM, first compound 0.00316 µM): 100%
- viability, T/C (second compound 0.1 µM, first compound 0.01 µM): 99.7%
- viability, T/C [5]: 96.5%
- viability, T/C [6]: 86.4%
- viability, T/C [7]: 54.4%
- viability, T/C [8]: 44.5%
- viability, T/C (second compound 0.316 µM, first compound 0.00316 µM): 103%
- viability, T/C (second compound 0.316 µM, first compound 0.01 µM): 100%
- viability, T/C [9]: 93.2%
- viability, T/C [10]: 82.7%
- viability, T/C [11]: 52.7%
- viability, T/C [12]: 49%
- viability, T/C (second compound 1 µM, first compound 0.00316 µM): 110%
- viability, T/C (second compound 1 µM, first compound 0.01 µM): 93.8%
- viability, T/C [13]: 89.7%
- viability, T/C [14]: 82.6%
- viability, T/C [15]: 55.1%
- viability, T/C [16]: 46.9%
- viability, T/C (second compound 3.16 µM, first compound 0.00316 µM): 100%
- viability, T/C (second compound 3.16 µM, first compound 0.01 µM): 88.3%
- viability, T/C [17]: 90.1%
- viability, T/C [18]: 77.3%
- viability, T/C [19]: 57.4%
- viability, T/C [20]: 46.5%
- viability, T/C (second compound 10 µM, first compound 0.00316 µM): 101%
- viability, T/C (second compound 10 µM, first compound 0.01 µM): 90.2%
- viability, T/C [21]: 97.2%
- viability, T/C [22]: 74.3%
- viability, T/C [23]: 58.6%
- viability, T/C [24]: 44.8%

Structure (SMILES): CNCc1ccc(-c2[nH]c3cc(F)cc4c3c2CCNC4=O)cc1 + COC1C(OC(N)=O)C(O)C(Oc2ccc3c(O)c(NC(=O)c4ccc(O)c(CC=C(C)C)c4)c(=O)oc3c2C)OC1(C)C
- IC50 (second compound 0.0316 µM): > 10000 nM
- IC50 (second compound 0.1 µM): > 10000 nM
- IC50 (second compound 0.316 µM): > 10000 nM
- IC50 (second compound 1 µM): > 10000 nM
- IC50 (second compound 3.16 µM): > 10000 nM
- IC50 (second compound 10 µM): > 10000 nM
- viability, T/C [1]: 95.9%
- viability, T/C [2]: 96.7%
- viability, T/C [3]: 95.4%
- viability, T/C [4]: 94.7%
- viability, T/C (second compound 0.0316 µM, first compound 3.16 µM): 93.2%
- viability, T/C (second compound 0.0316 µM, first compound 10 µM): 75.9%
- viability, T/C [5]: 96.4%
- viability, T/C [6]: 96.5%
- viability, T/C [7]: 93.5%
- viability, T/C [8]: 108%
- viability, T/C (second compound 0.1 µM, first compound 3.16 µM): 92.7%
- viability, T/C (second compound 0.1 µM, first compound 10 µM): 84%
- viability, T/C [9]: 101%
- viability, T/C [10]: 96.4%
- viability, T/C [11]: 93.5%
- viability, T/C [12]: 95.5%
- viability, T/C (second compound 0.316 µM, first compound 3.16 µM): 91%
- viability, T/C (second compound 0.316 µM, first compound 10 µM): 81.2%
- viability, T/C [13]: 102%
- viability, T/C [14]: 91.5%
- viability, T/C [15]: 87.2%
- viability, T/C [16]: 85.4%
- viability, T/C (second compound 1 µM, first compound 3.16 µM): 92.4%
- viability, T/C (second compound 1 µM, first compound 10 µM): 78.3%
- viability, T/C [17]: 93.3%
- viability, T/C [18]: 88.2%
- viability, T/C [19]: 90.3%
- viability, T/C [20]: 84.2%
- viability, T/C (second compound 3.16 µM, first compound 3.16 µM): 89%
- viability, T/C (second compound 3.16 µM, first compound 10 µM): 82.5%
- viability, T/C [21]: 102%
- viability, T/C [22]: 94.8%
- viability, T/C [23]: 84%
- viability, T/C [24]: 87.7%
- viability, T/C (second compound 10 µM, first compound 3.16 µM): 88.2%
- viability, T/C (second compound 10 µM, first compound 10 µM): 88.9%
